Patent US12447135B2 (University of South Florida, priority 2021, dated 2025)
“Also recorded” adds a separate entry of the source.

Tests used:
SK-N-SH cells [1] = experiment: Total protein ubiquitination, western blot (P4D1); assay type: cell-based, human
Method: To determine the FFAR2 signal activating property of selected compounds, SK-N-SH cells were treated with 10 μM of shortlisted compounds for 30 min at 37° C. and harvested for total protein extraction. Cells were harvested after 30 min of incubation because ERK1/2 phosphorylation upon FFAR2 activation is a quick event (Jiao et al., 2002; Bhattacharjee et al., 2010). Total protein from the cells was extracted using a lysis buffer [consisting of 10 mmol/L Tris (pH 7.6), 150 mmol/L NaCl, 10 mmol/L Sodium orthovanadate, 10 mmol/L Sodium Pyrophosphate, 100 mmol/L Sodium fluoride, 1 mmol/L EDTA, 1 mmol/L EGTA, 1% Triton X-100, 0.5% NP-40 and a cocktail of protease inhibitors (Roche); Yadav et al., 2011, 2017; Ahmadi et al., 2019, 2020a]. After sonication, cell extracts were centrifuged at 8,000×g for 10 min at 4° C., and the supernatant was separated in a fresh tube. The total protein concentration of the supernatant was measured using a BCA protein assay kit. […] Band densities were also quantified using NIH ImageJ software. β-actin was used as an internal control.

SK-N-SH cells [2] = experiment: Lysosome activity in SK-N-SH cells; assay type: cell-based, human; conditions: 10 μM, vs controls
Method: Bafilomycin was used as an inhibitor of cellular autophagy/lysosomal activity. The lysosomal activity was assayed using the Enz@ lysozyme assay kit (E-22013, Molecular Probes) and the fluorescence was measured in a fluorescence microplate reader using excitation and emission wavelengths of 494 nm and 518 nm, respectively (Biotek Instruments, VT, USA).

[3] = test system: C. elegans CL2355 and CL2122; experiment: Chemotaxis activity in C. elegans; assay type: in vivo; conditions: 10 μg/ml
Method: Then the worms were washed twice with S-Basal media and transferred to an NGM plate without E. coli OP50. These plates were divided into four equal sectors, with 1 μl of 0.1% benzaldehyde as an odorant and 1 μl of 1 M sodium azide as an anesthetic to arrest the worms upon reaching the quadrant were added to the original spot. On the opposite side of the attractant, a 1 μl drop of sodium azide and 1 μl of control odorant (100% ethanol) were added onto the NGM agar plate. Around 40-45 worms were placed in the center of each plate, incubated at room temperature for 1 h, and transferred to 4° C. overnight. The chemotaxis index (CI) was scored using the following formula: (number of worms at the attractant location […])/total number of worms on the plate ([…] et al., 2013).

FFAR2 signaling = experiment: Western blot of phospho-ERK1/2 in SK-N-SH cells (FFAR2 signal activation); assay type: cell-based, human; conditions: 10 μM, 30 min
Method: To determine the FFAR2 signal activating property of selected compounds, SK-N-SH cells were treated with 10 μM of shortlisted compounds for 30 min at 37° C. and harvested for total protein extraction. […] After sonication, cell extracts were centrifuged at 8,000×g for 10 min at 4° C., and the supernatant was separated in a fresh tube. The total protein concentration of the supernatant was measured using a BCA protein assay kit. An equal amount of total protein (45 μg) from each sample was dissolved in loading buffer and loaded in 4% stacking gel and 10% separating SDS-PAGE gel and resolved at 100 V. Proteins were transferred on a 0.22 μm PVDF membrane and blots were developed with anti-ERK1/2, anti-phosphoERK1/2, ubiquitin (P4D1), and Aβ (6E10) primary antibodies followed by their secondary antibodies and bands were visualized using the Pierce™ Fast Western Blot Kit, ECL Substrate acquired using Syngene Pxi. Band densities were also quantified using NIH ImageJ software. β-actin was used as an internal control.

proteasome [4] = experiment: Proteasome activity assay in brain of APP/PS1 mice; assay type: in vivo; conditions: 80 mg/kg daily oral gavage, 3 months
Method: Brains were collected and immediately homogenized in proteasome lysis buffer and proteasome activity was measured as described below. All the animal procedures and experiments were approved by the institutional animal care and use committee (IACUC) of the Wake Forest School of Medicine and the University of South Florida.
(§1) The CL2006 strain, SK-N-SH cells, and brain tissues were sonicated in a lysis buffer (150 mM NaCl, 50 mM HEPES, 2 mM DTT, 20 mM NaF, 5 mM EDTA, 2.5 mM sodium pyrophosphate, 1 mM sodium orthovanadate, and 1 mM α-glycerophosphoric acid) and then centrifuged at 15,000 g at 4° C. for 15 min. Total protein was assayed using BCA kit and 20 μg protein was mixed with 140 μM suc-leu-leu-val-tyr-7-amino-4-methylcou-marin (AMC) in a proteasome activity assay buffer (150 mM NaCl, 50 mM HEPES [pH 7.4], 5 mM ATP, and 5 mM EDTA), and then the fluorescence (excitation 380 nm and emission 460 nm) was measured every 10 min over 3 h using a microplate reader. The assay was performed with and without the proteasome inhibitor MG132 (10 μM).

proteasome [5] = experiment: Proteasome activity assay in SK-N-SH cells; assay type: cell-based, human
Method: as §1

SK-N-SH cells [6] = experiment: Aβ-induced neurotoxicity, MTT viability assay; assay type: cell-based, human
Method: To determine the impact of FFAR2 inhibition on Aβ-induced neuronal cell toxicity, the MTT viability assay was performed (Ronicke et al., 2008). SK-N-SH cells (1×10^3 cells per well) were plated in a 96-well plate containing DMEM medium supplemented with 10% FBS and 1% antibiotics and grown at 37° C. for 24 h. Then, media was removed, and cells were washed with PBS before being replenished with DMEM media containing 1% FBS and 10 μM FFAR2 inhibitor (CATPB, Tocris) and incubated at 37° C. for 2 h. Then, cells were treated with Aβ 25-32 peptide (25 μM, Sigma) and incubated for 4 h. Afterward, the media was replaced with 100 μl of fresh media, and 10 μl of MTT reagent (5 mg/ml in phosphate buffer [pH 7.2]) was added and mixed in each well before an additional 4 h incubation. Then, DMSO (50 μl) was added in each well and mixed thoroughly to dissolve formazan crystals. The absorbance was measured at 570 nm.

Q: With `CC12CCC(C1)C(C)(C)C2O` (stereo not drawn) [Fenchol] as the compound, how does the protein ubiquitinylation (SK-N-SH cells [1]) read?
A: did not change

Q: What about the lysosomal activity (SK-N-SH cells [2]) of the same compound?
A: significantly increased

Q: And the “memory behavior / chemotaxis index” value ([3]; CL2355 worms overexpressing human Aβ)?
A: significantly higher; also recorded: preserved

Q: What about the chemotaxis index ([3]; control CL2122 strain) of the same compound?
A: normal effects

Q: And the “descending order of phospho-ERK1/2 levels” value (FFAR2 signaling)?
A: Fenchol>Octopamine>Carvamenthenol>Camphene>Pentanone>Synephrine>Leucinamide>Carene>α-Terpineol>Breneol>L-Fenchone>D-Fenchone>Norpseudoephedrine HCl

Q: And the “levels of phospho-ERK1/2 proteins” value (FFAR2 signaling; vs rest of selected compounds)?
A: highest in Fenchol and comparable to acetate

Q: And the proteasomal activity (proteasome [4]; APP/PS1 mice cortex)?
A: significantly increased

Q: And the proteasomal activity (proteasome [4]; APP/PS1 mice hippocampus)?
A: significantly increased

Q: What about the proteasomal activity (proteasome [5]) of the same compound?
A: significantly increased

Q: What about the “proteasome activity in cells also treated with Aβ” value (proteasome [5]; Fenchol plus Aβ) of the same compound?
A: higher

Q: And the “protection in cell viability with FFAR2 inhibitor” value (SK-N-SH cells [6]; Fenchol together with FFAR2 inhibitor, Aβ)?
A: no significant protection

Q: What about the “Aβ-induced neuronal cell death” value (SK-N-SH cells [6]; vs DMSO controls) of the same compound?
A: significantly reduced
